Measurements from ChEMBL document CHEMBL1201862, “PubChem BioAssay data set” (2004).
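Assay format: 96-well plates, 48-hour exposure. The concentration for 50% growth inhibition is given as GI50.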 Active and inactive are the calls of the source. Rule as the data show it: active = GI50 up to about 1.1 µM and inactive = higher. Non-standard residues stand in square brackets, D forms with d. Residues, ends and D or L forms follow the SMILES beside them. *: point of attachment. hSer = N[CH](CCO)C(=O)O; Boc = CC(C)(C)OC(=O)*

What was measured:
Experiment in all cases: NCI tumour cell line growth inhibition, 48 h
A498 = system: A498
CAKI-1 = system: CAKI-1
COLO 205 = system: COLO 205
DU-145 = system: DU-145
HCT-116 = system: HCT-116
IGROV-1 = system: IGROV-1
KM12 = system: KM12
LOX IMVI = system: LOX IMVI
MDA-MB-435 = system: MDA-MB-435
MDA-N = system: MDA-N
NCI-H23 = system: NCI-H23
NCI-H522 = system: NCI-H522
SF-268 = system: SF-268
SF-295 = system: SF-295
SK-MEL-28 = system: SK-MEL-28
SK-OV-3 = system: SK-OV-3
SN12C = system: SN12C
SR = system: SR
T47D = system: T47D
K562 = system: K562

Measured: GI50

O=C1NC2(CN3CCC2CC3)C(=O)N1CN(Cc1ccccc1)c1ccccc1 (stereo unspecified)
inactive: A498 > 100 µM | CAKI-1 > 100 µM | COLO 205 92.7 µM | DU-145 48.4 µM | HCT-116 > 100 µM | IGROV-1 > 100 µM | KM12 > 100 µM | LOX IMVI 35.2 µM | MDA-MB-435 > 100 µM | MDA-N > 100 µM | NCI-H23 44.4 µM | NCI-H522 94.6 µM | SF-268 37.6 µM | SF-295 > 100 µM | SK-MEL-28 > 100 µM | SK-OV-3 > 100 µM | SN12C 71 µM | SR 25.3 µM | T47D 39 µM

[O-][S+](CCCl)c1c2ccccc2nc2ccccc12 (stereo unspecified)
inactive: A498 > 100 µM | CAKI-1 14.8 µM | COLO 205 36.9 µM | DU-145 22.9 µM | HCT-116 42.1 µM | IGROV-1 38.6 µM | K562 > 100 µM | KM12 65.3 µM | LOX IMVI 79.4 µM | MDA-MB-435 84.9 µM | MDA-N 34.5 µM | NCI-H23 75 µM | NCI-H522 8.45 µM | SF-268 > 100 µM | SF-295 > 100 µM | SK-MEL-28 > 100 µM | SK-OV-3 > 100 µM | SN12C 23.3 µM | SR > 100 µM | T47D > 100 µM

CCC1OC(=O)CC(O)C(C)C(OC2OC(C)C(O)C(N(C)C)C2O)C(CC=O)CC(C)C(=O)/C=C/C2(C)OC2C1C (stereo unspecified)
inactive: A498 36.9 µM | CAKI-1 23.1 µM | COLO 205 19.6 µM | DU-145 20.7 µM | HCT-116 17.9 µM | IGROV-1 23.1 µM | K562 12 µM | KM12 15.3 µM | LOX IMVI 16.8 µM | MDA-MB-435 27.7 µM | MDA-N 24.4 µM | NCI-H23 26.4 µM | NCI-H522 18.5 µM | SF-268 24.9 µM | SF-295 67.9 µM | SK-MEL-28 54.6 µM | SK-OV-3 58.7 µM | SN12C 15.1 µM | SR 13.5 µM | T47D 17.2 µM

COc1cc(NC(C)=O)ccc1C(=O)NN1C(=O)C(Cl)C1c1ccco1 (stereo unspecified)
inactive: A498 > 100 µM | CAKI-1 88.9 µM | COLO 205 61.8 µM | DU-145 > 100 µM | HCT-116 > 100 µM | IGROV-1 80.5 µM | K562 > 100 µM | KM12 > 100 µM | LOX IMVI 75.2 µM | MDA-MB-435 > 100 µM | MDA-N > 100 µM | NCI-H23 > 100 µM | NCI-H522 > 100 µM | SF-268 > 100 µM | SK-MEL-28 > 100 µM | SN12C > 100 µM | SR 36.6 µM | T47D > 100 µM

COc1ccc2c(c1)C(N)=C(c1ccccc1OC)C2=O
inactive: A498 > 100 µM | CAKI-1 > 100 µM | COLO 205 > 100 µM | DU-145 > 100 µM | HCT-116 > 100 µM | IGROV-1 > 100 µM | K562 > 100 µM | KM12 76.6 µM | LOX IMVI > 100 µM | MDA-MB-435 53.6 µM | MDA-N > 100 µM | NCI-H23 > 100 µM | SF-268 > 100 µM | SF-295 > 100 µM | SK-MEL-28 > 100 µM | SK-OV-3 > 100 µM | SN12C > 100 µM | SR 29.9 µM | T47D > 100 µM

Cc1nc(N)nc2ccccc12
inactive: A498 > 100 µM | CAKI-1 > 100 µM | DU-145 > 100 µM | HCT-116 > 100 µM | IGROV-1 > 100 µM | K562 > 100 µM | KM12 > 100 µM | LOX IMVI > 100 µM | MDA-MB-435 > 100 µM | MDA-N > 100 µM | NCI-H23 > 100 µM | NCI-H522 > 100 µM | SF-268 > 100 µM | SF-295 > 100 µM | SK-MEL-28 > 100 µM | SK-OV-3 > 100 µM | SN12C > 100 µM | SR > 100 µM | T47D > 100 µM

c1cn(C23C4C5C6C4C2C6C53)cn1 (stereo unspecified)
inactive: A498 > 100 µM | COLO 205 > 100 µM | DU-145 > 100 µM | HCT-116 > 100 µM | IGROV-1 > 100 µM | K562 > 100 µM | KM12 > 100 µM | LOX IMVI > 100 µM | MDA-MB-435 > 100 µM | MDA-N > 100 µM | NCI-H23 > 100 µM | NCI-H522 > 100 µM | SF-268 > 100 µM | SF-295 > 100 µM | SK-MEL-28 > 100 µM | SK-OV-3 > 100 µM | SN12C > 100 µM | SR > 100 µM | T47D > 100 µM

CC12CCC([C@H](C(O)C3CCCCC3)C1=O)C2(C)C (stereo partly specified)
inactive: A498 > 100 µM | CAKI-1 > 100 µM | COLO 205 > 100 µM | DU-145 > 100 µM | HCT-116 > 100 µM | IGROV-1 > 100 µM | K562 63 µM | KM12 > 100 µM | LOX IMVI > 100 µM | MDA-MB-435 > 100 µM | MDA-N > 100 µM | NCI-H23 > 100 µM | NCI-H522 65.8 µM | SF-268 > 100 µM | SF-295 > 100 µM | SK-OV-3 > 100 µM | SN12C > 100 µM | SR 22.4 µM | T47D > 100 µM

Nc1ccc(S(=O)(=O)Nc2nccs2)cc1 [SULFATHIAZOLE]
inactive: A498 > 100 µM | COLO 205 > 100 µM | DU-145 > 100 µM | HCT-116 > 100 µM | IGROV-1 > 100 µM | K562 > 100 µM | KM12 > 100 µM | LOX IMVI > 100 µM | MDA-MB-435 > 100 µM | MDA-N > 100 µM | NCI-H23 > 100 µM | NCI-H522 > 100 µM | SF-268 > 100 µM | SF-295 > 100 µM | SK-MEL-28 > 100 µM | SK-OV-3 > 100 µM | SN12C > 100 µM | SR > 100 µM | T47D > 100 µM

COCCC(NC(=O)C(CC(C)C)NC(=O)OC(C)(C)C)C(N)=O (stereo not drawn) (Boc-Leu-[hSer](Me)-NH2; configuration not given here)
inactive: A498 > 100 µM | CAKI-1 > 100 µM | COLO 205 > 100 µM | DU-145 > 100 µM | HCT-116 > 100 µM | IGROV-1 > 100 µM | K562 > 100 µM | KM12 > 100 µM | LOX IMVI > 100 µM | MDA-MB-435 > 100 µM | MDA-N > 100 µM | NCI-H522 > 100 µM | SF-268 > 100 µM | SF-295 > 100 µM | SK-MEL-28 > 100 µM | SK-OV-3 > 100 µM | SN12C > 100 µM | SR > 100 µM | T47D > 100 µM
